Assay results taken from patent US20240000741A1, “ALL-TRANS RETINOIC ACID ENHANCES RADIOTHERAPY AND OVERCOMES IMMUNE SUPPRESSION FOR CANCER THERAPY” (The University of Chicago, priority 2022, published 2024).

Tests used:
Format in all cases: in vivo, mouse
[1] = test system: MC38 cells; assay: Tumor re-challenge of cured mice with MC38 cells; details: mice cured by IR+RA, re-challenged with 5×10^6 MC38 cells
Protocol: 1×10^6 MC38, B16/F1, Renca or CT26 cells were subcutaneously implanted into flanks of mice. Tumors were irradiated using a Phillips IR250 orthovoltage X-ray generator (Phillips, Amsterdam, the Netherlands) operating at 250 kV 15 mA. Subcutaneous local tumors were irradiated by shielding bodies with a cylindrical lead cover with only flank tumors exposed for radiation. ATRA (400 μg/mice/day) was administered by oral gavage for 10 days. For the two-tumor model, 1×10^6 and 0.7×10^6 MC38 cells were subcutaneously implanted into the right and left flank of mice respectively. For the tumor re-challenge assay, both the cured mice and the naive mice were re-challenged with 5×10^6 MC38 or 1×10^6 LLC cells respectively. Tumors were measured along two diameters (length and width) and depth twice weekly and volumes were calculated as length×width×depth/2. For CD8 and CD4 T cell depletion experiments, 200 μg antibodies were injected i.p. on day 0, 2, 5 and 8 after radiation. Anti-CD11b antibody was injected i.p. every two days starting 1 day before radiation. Anti-PD-L1 antibody was administered i.p. on day 0, 3, and 7 after radiation at 200 μg/mouse. Anti-IFN-γ was administered i.p. at 500 μg/mouse every 7 days. Anti-NK1.1 antibody was administered via i.p. at 25 μg/mouse every 3 days for 3 doses. Anti-GM-CSF antibody was given by i.p. injection at 250 μg/mouse every 2 days. […]

[2] = test system: CD11b+CD11c+ cells; assay: Quantitative real-time PCR of cells sorted from tumors
Excerpt: Total RNA from tumor and CD11c+ cells isolated from tumors with a kit sold under the tradename EASYSEP® Mouse CD11c positive selection kit II (STEMCELL Technologies, Vancouver, Canada) was extracted with a kit sold under the tradename QUICK-RNA® Miniprep Plus kit (R1058, Zymo Research, Irvine, California, United States of America). cDNA was synthesized with a High Capacity cDNA Reverse Transcription kit (4368814, Applied Biosystems, Waltham, Massachusetts, United States of America). Real-time PCR was performed with a kit containing fluorescent chemicals sold under the tradename SYBR™ (Molecular Probes, Sunnyvale, California, United States of America), i.e., the SYBR™ Green PCR Master Mix (4309155, Applied Biosystems, Waltham, Massachusetts, United States of America) and results were normalized to β-actin. Primers used: […]
Relative gene expression was calculated using the 2^−ΔΔCT approach.

[3] = test system: CT26 (a colon cancer model); assay: CT26 tumor growth after IR and RA (ablative IR); details: IR and RA combination compared with single treatments
Protocol: 1×10^6 MC38, B16/F1, Renca or CT26 cells were subcutaneously implanted into flanks of mice. Tumors were irradiated using a Phillips IR250 orthovoltage X-ray generator (Phillips, Amsterdam, the Netherlands) operating at 250 kV 15 mA. Subcutaneous local tumors were irradiated by shielding bodies with a cylindrical lead cover with only flank tumors exposed for radiation. ATRA (400 μg/mice/day) was administered by oral gavage for 10 days. For the two-tumor model, 1×10^6 and 0.7×10^6 MC38 cells were subcutaneously implanted into the right and left flank of mice respectively. […] Tumors were measured along two diameters (length and width) and depth twice weekly and volumes were calculated as length×width×depth/2. For CD8 and CD4 T cell depletion experiments, 200 μg antibodies were injected i.p. on day 0, 2, 5 and 8 after radiation. Anti-CD11b antibody was injected i.p. every two days starting 1 day before radiation. Anti-PD-L1 antibody was administered i.p. on day 0, 3, and 7 after radiation at 200 μg/mouse. Anti-IFN-γ was administered i.p. at 500 μg/mouse every 7 days. Anti-NK1.1 antibody was administered via i.p. at 25 μg/mouse every 3 days for 3 doses. Anti-GM-CSF antibody was given by i.p. injection at 250 μg/mouse every 2 days. FTY720 was delivered via gavage at 20 μg per dose every day for 7 days. […]

[4] = test system: MC38 cell antigen-specific CD8+ T cells; assay: ELISPOT assay for IFN-γ-secreting CD8+ T cells
Protocol: MC38 cells were irradiated (40 Gy) and cultured overnight. CD8^+ T cells were isolated with EasySep mouse CD8+ positive selection kit (18953, STEMCELL Technologies, Vancouver, Canada) from draining lymph nodes of tumor-bearing mice on day 8 after treatment. 2×10^5 isolated CD8^+ T cells and 2×10^4 irradiated MC38 cells were plated onto 96-well PVDF-backed microplates coated with monoclonal antibody specific for mouse IFN-γ for 72 hours. Spots were developed by following the manufacturer's protocol (BD Biosciences, Franklin Lakes, New Jersey, United States of America).

[5] = test system: CT26 tumor; assay: ATRA-sensitized fractionated radiotherapy in CT26 tumor bearing BALB/c mice; details: 6 fractions
Protocol: 2×10^6 CT26 cells were subcutaneously injected into the right flanks of BALB/c mice. When the tumors reached 100-120 mm^3 in volume, ATRA in corn oil (400 μg/each) was daily administrated via oral gavage. After administration, mice were anaesthetized with 2% (v/v) isoflurane and the tumors were irradiated daily with X-ray at a dose of 1 Gy/fraction (225 kVp, 13 mA, 0.3 mm-Cu filter) for a total of 6 fractions on six consecutive days. Oil (equal volume/each) was daily administrated with or without irradiation as a control. The tumor size was measured with a caliper every day and the tumor volume calculated as 0.5×length×width 2. All the mice were sacrificed when the tumors reached about 2000 mm^3.

[6] = cells sorted from treated tumors
[7] = radiation and RA treatment compared to controls
[8] = ATRA 400 μg/each oral gavage daily plus X-ray 1 Gy/fraction

CC1=C(/C=C/C(C)=C/C=C/C(C)=C/C(=O)O)C(C)(C)CCC1 [RA, all-trans retinoic acid]
tumor formation after re-challenge with MC38 cells [1]: did not form tumors | mRNA level of TNF-α in sorted CD11b+CD11c+ cells [2, 6]: increased | mRNA level of iNOS in sorted CD11b+CD11c+ cells [2, 6]: increased | transcription of CXCL9 in CD11c+ cells [2, 7]: increased significantly | transcription of CXCL10 in CD11c+ cells [2, 7]: increased significantly | transcription of CXCL11 in CD11c+ cells [2, 7]: increased significantly | CT26 tumor growth [3]: significant benefit | tumor antigen-specific CD8+ T cell priming in draining lymph nodes (IFN-γ ELISPOT) ([4]; IR+RA compared to control or single treatments): significantly enhanced | priming of CD8+ T cells from DLN of non-irradiated tumors (IFN-γ production) ([4]; primary tumor received IR+RA combination treatment): augmented | CT26 tumor growth [5, 8]: regressed tumor growth | mice totally free of tumors [5, 8]: 2 out of 5 | body weight ([5]; ATRA plus X-ray 1 Gy/fraction): No weight loss
